Laboratory results from patent publication US8241846B1, “Hedgehog pathway modulation and uses thereof for treating, preventing and/or diagnosing cancer” (Institut de Recherches Cliniques de Montreal, priority 2008, dated 2012).

Test system: GCP purified from post-natal day 4 rat cerebellum
Experiment: Ki-67 proliferation of electroporated GCP overexpressing BOC, with Shh and Smo inhibitor
Type: cell-based
Details: 10 nM Shh plus SANT-1
Description: GCP purified from post-natal day 4 rat cerebellum were co-electroporated with either a combination of BOC with a red fluorescence protein expressing plasmids (BOC) or with a control empty plasmid with a red fluorescence protein expressing plasmid (control). Proliferation was evaluated by measuring the percentage of Ki-67 positive cells among electroporated cells in absence or in presence of sonic hedgehog (Shh) and also in presence of Shh in combination with an inhibitor of Smo (SANT-1);
GCP purified from post-natal day 4 rat cerebellum were co-electroporated with either a combination of a plasmid containing a nucleic acid encoding murine BOC with a red fluorescent protein (RFP)-expressing plasmids (BOC) (both genes under the control of the chicken beta-actin promoter) or with a control empty plasmid with a red fluorescent protein-expressing plasmid (control). Proliferation was evaluated by measuring the percentage of Ki-67-positive cells among electroporated cells in the presence or absence of Shh. In addition, the role of the Hh signalling protein Smoothened (Smo) was tested using an inhibitor of Smo (SANT-1) in combination with Shh.

Cc1nn(-c2ccccc2)c(C)c1/C=N/N1CCN(Cc2ccccc2)CC1 [SANT-1]
effect on BOC-mediated increase in percentage of Ki-67-positive cells: prevents this increase
